From patent US20220288065A1, “MONOCYCLIC AGONISTS OF STIMULATOR OF INTERFERON GENES STING” (The Scripps Research Institute, priority 2019, published 2022)

These compounds were tested on THP-1 Lucia ISG cells (assay: ISG-LUC activation assay (ISRE-luciferase assay)). Conditions: Homo sapiens, THP1-Lucia ISG, activity score based upon potency and efficacy data, 24 hours.
Type: cell-based
From the text: We have established a robust platform for identifying non-nucleotide small molecule STING agonists. This has been established using a primary assay involving a human THP-1 cell line carrying an IRF-inducible reporter with 5 copies of the IFN signaling response element. Counter screens, involving alternative reporter constructs, rodent cell-based assays, as well as cGAS and STING knock-out cell lines, are used to eliminate luciferase artifacts and ensure human-rodent cross species reactivity, as well as pathway selectivity. Biochemical assays, involving cGAS enzymatic activity and STING protein binding assays, are used to identify the specific target of identified hits.
Tissue culture. Wild-type (cat. no. thpl-isg) and STING KO (cat. no. thpd-kostg) THP-1-Lucia ISG cells were purchased from Invivogen and maintained in growth media consisting of RPMI 1640, 2 mM L-glutamine, 25 mM HEPES, 10% heat-inactivated fetal bovine serum (FBS), 1,000 units/ml penicillin, 1,000 μg/ml streptomycin, 0.25 μg/ml Amphotericin B, and 100 μg/ml zeocin unless otherwise stated.
ISRE-luciferase assay. THP-1 Lucia ISG cells were resuspended in low-serum growth media (2% FBS) at a density of 5×10^5 cells/ml and treated with test article or vehicle (DMSO). 50 μL of cells were seeded into each well of a 384-well white greiner plates and incubated for 24 hours. To evaluate expression of the luciferase reporter, 30 μl of Quanti-luc (Invivogen) detection reagent was added to each well and luminescence was read using an Envision plate reader (Perkin Elmer) set with an integration time of 0.1 seconds.

| Structure (SMILES) | EC50 [µM] |
| --- | --- |
| C#Cc1cc(NC(=O)c2ccc(-c3ccncc3)nn2)c(C(=O)O)cc1F [Compound 1, lithium 4-ethynyl-5-fluoro-2-(6-(pyridin-4-yl)pyridazine-3-carboxamido) benzoate] | < 0.9 |
| COC(=O)c1cc(F)c(F)cc1NC(=O)c1nnc(-n2ccnc2)cc1CN [Compound 2, methyl 2-(4-(aminomethyl)-6-(1H-imidazol-1-yl)pyridazine-3-carboxamido)-4,5-difluorobenzoate] | > 1 |
| C#Cc1cc2nc(-c3ccc(-c4ccncc4)nn3)oc(=O)c2cc1F [Compound 3, 7-ethynyl-6-fluoro-2-(6-(pyridin-4-yl)pyridazin-3-yl)-4H-benzo[d][1,3]oxazin-4-one] | < 0.9 |
| COC(=O)c1cc(F)c(F)cc1NC(=O)c1ccc(-n2ccnc2CO)nn1 [Compound 4] | < 3 |
| COC(=O)c1cc(F)c(F)cc1NC(=O)c1ccc(C#N)nn1 [Compound 5] | > 1 |
| CS(=O)(=O)NCCNc1cc(C(=O)Nc2cc(F)c(F)cc2C(=O)O)nnc1-n1ccnc1 [Compound 6] | > 1 |
| COC(=O)c1cc(F)c(F)cc1NC(=O)c1nnc(-n2ccnc2)cc1CO [Compound 7] | < 0.9 |
| COC(=O)c1cc(F)c(F)cc1NC(=O)c1ccc(N)nn1 [Compound 8] | > 1 |
| COC(=O)c1cc(F)c(F)cc1NC(=O)c1ccc(CC#N)nn1 [Compound 9] | > 1 |
| COC(=O)c1cc(F)c(F)cc1NC(=O)c1ccc(-c2cccnc2)nn1 [Compound 10] | > 1 |
| CCOC(=O)Nc1ccc(C(=O)Nc2cc(F)c(F)cc2C(=O)O)nn1 [Compound 11] | > 1 |
| COC(=O)c1cc(Cl)c(OC)cc1NC(=O)c1cc(N)ncn1 [Compound 12] | > 1 |
| NC(=O)c1ccc(C(=O)Nc2cc(F)c(F)cc2C(=O)O)cn1 [Compound 13] | > 20 |
| Nc1n[nH]cc1-c1ccc(C(=O)Nc2cc(F)c(F)cc2C(=O)O)nn1 [Compound 14] | > 1 |
| COC(=O)c1cc(F)c(F)cc1NC(=O)c1ccc(-c2c[nH]nn2)nn1 [Compound 15] | < 0.9 |
| COC(=O)c1cc(F)c(F)cc1NC(=O)c1cc(C(N)=O)cnn1 [Compound 16] | > 1 |
| COC(=O)c1cc(F)c(F)cc1NC(=O)c1ccc(CO)nn1 [Compound 17] | < 3 |
| COC(=O)c1cc(Cl)c(Cl)cc1NC(=O)c1ccc(N)nn1 [Compound 18] | > 1 |
| COc1cncc(-c2ccc(C(=O)Nc3cc(F)c(F)cc3C(=O)O)nn2)c1 [Compound 19] | > 1 |
| COC(=O)c1cc(F)c(F)cc1NC(=O)c1cc(N)cnn1 [Compound 20] | < 0.9 |
| O=C(Nc1cc(F)c(F)cc1C(=O)O)c1ccc(-c2cccnc2)nn1 [Compound 21] | > 1 |
| COC(=O)c1cc(Cl)c(Cl)cc1NC(=O)c1cn(-c2cnn(C(=O)OC(C)(C)C)c2)nn1 [Compound 22] | > 1 |
| COC(=O)c1cc(Cl)c(Cl)cc1NC(=O)c1cn(-c2cn[nH]c2)nn1 [Compound 23] | < 0.9 |
| COC(=O)c1cc(Cl)c(Cl)cc1NC(=O)c1nnc(-n2ccnc2)cc1CN [Compound 24] | < 0.9 |
| COC(=O)c1cc(Cl)c(Cl)cc1NC(=O)c1ccc(-n2ccnc2)cn1 [Compound 25] | > 1 |

| Structure (SMILES) | EC50 [µM] |
| --- | --- |
| COC(=O)c1cc(Cl)c(Cl)cc1NC(=O)c1cc(CN)c(-n2ccnc2)nn1 [Compound 26] | < 0.9 |
| COC(=O)c1cc(C#N)c(Cl)cc1NC(=O)c1ccc(-c2c(Br)cnn2C)nn1 [Compound 27] | > 20 |
| N#Cc1n[nH]cc1-c1ccc(C(=O)Nc2cc(Cl)c(F)cc2C(=O)O)nn1 [Compound 28] | > 1 |
| O=C(Nc1cc(Cl)c(F)cc1C(=O)O)c1ccc(-c2cnsc2)nn1 [Compound 29] | < 0.9 |
| COC(=O)c1cc(C#N)c(Cl)cc1NC(=O)c1ccc(-c2c[nH]nn2)nn1 [Compound 30] | < 0.9 |
| O=C(Nc1cc(Cl)c(F)cc1C(=O)O)c1ccc(-c2ccns2)nn1 [Compound 31] | < 0.9 |
| Cn1cc(C#N)c(-c2ccc(C(=O)Nc3cc(Cl)c(Cl)cc3C(=O)O)nn2)n1 [Compound 32] | > 20 |
| O=C(Nc1cc(Cl)c(Cl)nc1C(=O)O)c1ccc(-c2cc[nH]n2)nn1 [Compound 33] | > 1 |
| COC(=O)c1nc(Cl)c(Cl)cc1NC(=O)c1ccc(-c2cc[nH]n2)nn1 [Compound 34] | < 0.9 |
| C#Cc1cc(NC(=O)c2cn(-c3cn[nH]c3)nn2)c(C(=O)OC)cc1F [Compound 35] | < 0.9 |
| C#Cc1cc(NC(=O)c2cn(-c3cn[nH]c3)nn2)c(C(=O)O)cc1F [Compound 36] | > 1 |
| COC(=O)c1cc(Cl)c(Cl)cc1NC(=O)c1nc(-c2cn[nH]c2)no1 [Compound 37] | < 3 |
| C#Cc1cc(NC(=O)c2ccc(-c3cn[nH]c3)nn2)c(C(=O)O)nc1Cl [Compound 38] | < 0.9 |
| COC(=O)c1sc(C)cc1NC(=O)c1ccc(-n2ccnc2)nn1 [Compound 39] | > 1 |
| COC(=O)c1cc(F)c(F)cc1NC(=O)c1ccc(-c2ccnc(N)c2)nn1 [Compound 40] | < 0.9 |
| COC(=O)c1cc(F)c(F)cc1NC(=O)c1cc(N)c(-n2ccnc2)nn1 [Compound 41] | < 0.9 |
| COC(=O)c1cc(F)c(F)cc1NC(=O)c1cc(C)c(-n2ccnc2)nn1 [Compound 42] | > 1 |
| COC(=O)c1cc(F)c(F)cc1NC(=O)c1nnc(-n2ccnc2)cc1C [Compound 43] | > 1 |
| C=Cc1cc(NC(=O)c2ccc(-c3cn[nH]c3)nn2)c(C(=O)O)cc1F [Compound 44] | < 0.9 |
| COC(=O)c1cc(Cl)c(F)cc1NC(=O)c1ccncn1 [Compound 45] | > 1 |
| C#Cc1cc(NC(=O)c2ccc(-c3cn[nH]c3)nn2)c(C(=O)O)cc1F [Compound 46] | > 1 |
| COC(=O)NCc1cc(C(=O)Nc2cc(Cl)c(Cl)cc2C(=O)OC)nnc1-n1ccnc1 [Compound 47] | > 1 |
| COC(=O)c1cc(Cl)c(Cl)cc1NC(=O)c1cc(CNC(N)=O)c(-n2ccnc2)nn1 [Compound 48] | > 1 |
| O=C(Nc1cc(Cl)c(Cl)cc1C(=O)O)c1ccc(-c2cn[nH]c2)nn1 [Compound 49] | > 1 |
| COC(=O)c1cc(Cl)c(Cl)cc1NC(=O)c1ccc(-c2c[nH]nn2)nn1 [Compound 50] | < 0.9 |

| Structure (SMILES) | EC50 [µM] |
| --- | --- |
| O=C(Nc1cc(Cl)c(Cl)cc1C(=O)O)c1ccc(-c2c[nH]nn2)nn1 [Compound 51] | > 1 |
| O=C(Nc1cc(Cl)c(Cl)nc1C(=O)O)c1ccc(-c2cn[nH]c2)nn1 [Compound 52] | < 0.9 |
| C#Cc1cc(NC(=O)c2ccc(-c3cn[nH]c3)nn2)c(C(=O)O)cc1Cl [Compound 53] | > 1 |
| C#Cc1cc(NC(=O)c2cnc(-c3cn[nH]c3)cn2)c(C(=O)OC)cc1F [Compound 55] | > 20 |
| C#Cc1cc(NC(=O)c2ncc(-c3cn[nH]c3)cn2)c(C(=O)OC)cc1F [Compound 56] | > 20 |
| COC(=O)c1cc(Cl)c(F)cc1NC(=O)c1ccc(-c2cn[nH]c2)nn1 [Compound 57] | < 0.9 |
| COC(=O)c1cc(F)c(F)cc1NC(=O)c1ccc(-c2cn[nH]c2)nn1 [Compound 58] | < 0.9 |
| COC(=O)c1cc(F)c(F)cc1NC(=O)c1cc(NCc2ccc(OC)cc2)cnn1 [Compound 59] | < 0.9 |
| COC(=O)c1cc(F)c(F)cc1NC(=O)c1ccc(-c2ccncc2)nn1 [Compound 60] | < 0.9 |
| COC(=O)NCCNc1cc(C(=O)Nc2cc(F)c(F)cc2C(=O)OCc2ccc(OC)cc2)nnc1-n1ccnc1 [Compound 61] | > 1 |
| O=C(Nc1cc(F)c(F)cc1C(=O)O)c1ccc(-c2cn[nH]c2)nn1 [Compound 63] | > 1 |
| O=C(Nc1cc(Cl)c(Cl)cc1C(=O)O)c1cn(-c2cn[nH]c2)nn1 [Compound 64] | > 1 |
| COC(=O)c1cc(F)c(F)cc1NC(=O)c1cc(CN)c(-n2ccnc2)nn1 [Compound 65] | > 1 |
| O=C(Nc1cc(F)c(Cl)cc1C(=O)O)c1ccc(-c2cn[nH]c2)nn1 [Compound 66] | > 1 |
| O=C(Nc1cc(Cl)c(F)cc1C(=O)O)c1ccc(-c2cn[nH]c2)nn1 [Compound 67] | > 1 |
| COC(=O)c1cc(C#N)c(Cl)cc1NC(=O)c1ccc(-c2cn[nH]c2)nn1 [Compound 68] | < 0.9 |
| COC(=O)c1cc(F)c(Cl)cc1NC(=O)c1ccc(-c2cn[nH]c2)nn1 [Compound 69] | < 0.9 |
| N#Cc1cc(C(=O)O)c(NC(=O)c2ccc(-c3cn[nH]c3)nn2)cc1Cl [Compound 70] | > 20 |
| COC(=O)c1cc(C#N)c(C#N)cc1NC(=O)c1ccc(-c2c(C#N)cnn2C)nn1 [Compound 71] | > 20 |
| N#Cc1cc(C(=O)O)c(NC(=O)c2ccc(-c3c[nH]nn3)nn2)cc1Cl [Compound 72] | > 20 |
| COC(=O)c1cc(Cl)c(Cl)cc1NC(=O)c1ccc(-c2nn(C)cc2C#N)nn1 [Compound 73] | > 20 |
| COC(=O)c1cc(Cl)c(Cl)cc1NC(=O)c1cc(CCCN)c(-n2ccnc2)nn1 [Compound 74] | > 1 |
| C#Cc1cc2nc(-c3ccc(-n4ccnc4)nn3)oc(=O)c2cc1F [Compound 75] | < 0.9 |
| C#Cc1cc(NC(=O)c2ccc(-n3ccnc3)nn2)c(C(=O)OCC)nc1Cl [Compound 76] | < 0.9 |
| C#Cc1cc(NC(=O)c2ccc(-n3ccnc3)nn2)c(C(=O)O)nc1Cl [Compound 77] | < 0.9 |
